Laboratory results: publication PMC10067442, “In vivo quantitative high-throughput screening for drug discovery and comparative toxicology” (Disease Models & Mechanisms, 2023)
Entries after “also recorded” stand apart in the source; their conditions may differ. Residues, ends and D or L forms follow the SMILES beside them. *: point of attachment. Cbz = O=C(OCc1ccccc1)*

Columns and labels:
Assay type in all cases: in vivo, Caenorhabditis elegans
C. elegans strain PE254 [1] = test: C. elegans LSC qHTS viability assay, Anti-Infectives library primary screen (BG-fed, 384-well); details: for activity on C. elegans viability in primary qHTS (in words): seven-point titration
Protocol: Levamisole, ivermectin and albendazole were purchased from Sigma-Aldrich. Stock solutions of all compounds were prepared at 10 mM in DMSO, and ivermectin was diluted to a 10 µM working dilution in DMSO. […] Of these, 284 (38%) are approved for clinical use in the United States, 32 (4%) were previously marketed for use in the United States, and 62 (8%) are used clinically outside of the United States. […] DMSO stock solutions of were arrayed in Echo-qualified 384-well cyclic olefin copolymer plates (Labcyte) in qHTS inter-plate dilution with seven concentrations, 1:5 dilution, resulting in a final concentration range of 2.5–20 mM high concentration titrated to 160 nM to 1.28 µM low concentration ([Yasgar et al., 2008]). ‘Assay-ready’ plates were prepared in 384-well uClear microtiter plates (Greiner BioOne), with compounds acoustically dispensed at 250 nl per well with an Echo 555 in the above inter-plate titration array. Two plates with DMSO added across the compound field at the same volume were prepared as screening controls (‘uniformity plates’). DMSO vehicle control was added to every well of column 1, and levamisole cytotoxicity control was added at a high concentration of 10 mM in wells 1–8 and titrated 1:3, starting at a high concentration of 10 mM to 4.57 µM in wells 9–16 of column 2 of every plate. Additionally, ivermectin, levamisol and albendazole were plated as internal controls on one assay plate in 16-point, 1:2 titration down six replicate columns per compound, starting at a high concentration of 10 µM (ivermectin) or 10 mM (levamisole and albendazole). Assay-ready plates were sealed and frozen at −80°C until use.
C. elegans strain PE254 were collected from 12 NGM plates as above, transferred to 250 ml S medium supplemented with OP50 E. coli pellet collected from 2 l overnight culture, and grown for 5 days at 21°C with vigorous shaking in an Incu-Shaker Mini Shaking Incubator (Benchmark Scientific, Inc.). Eggs were axenized as above and hatched overnight in M9 buffer at 21°C and shaken at 65 rpm. Assay ready plates were thawed and allowed to equilibrate to ambient temperature. BGs in S medium (30 µl/well) at an OD600=0.85 were manually added across plates with a Capp pipette. Synchronized L1 worms from above were collected, diluted and plated at ten worms/30 µl/well with a Capp pipette into assay-ready microtiter plates pre-plated with BGs and compounds (240-fold dilution). […] No ethical approval or guidance is needed for working with nematodes.
Data from the Anti-Infectives screen were normalized by plate to corresponding intra-plate controls as previously described ([Inglese et al., 2006]). Assay statistics were calculated using the same respective controls. Total object ‘GFP’ area (µm^2) and number of worms were normalized to the average signal of DMSO-treated wells as zero percent neutral control, and the average signal of 41.7 µM levamisole-treated wells as −100% activity. In-house software was used to fit the resulting inter-plate titration data to the standard Hill equation, and concentration–response curves were classified by activity as previously described ([Southall et al., 2009]). Curve fits assignments of −1.1, −1.2, −2.1, −2.2 and −3 were considered active and visually confirmed.

C. elegans strain PE254 [2] = test: Life-stage distribution analysis by COPAS flow cytometry after 7-day treatment; details: 7-day treatment at ∼EC75-80, mixed population of 2000 worms/well
Protocol: After 7 days of compound treatment in six-well culture plates seeded with a mixed population of 2000 C. elegans strain PE254, a life-stage distribution analysis was determined by TOF and EC using the COPAS FP BioSorter, followed by bulk collection in a 50 ml conical tube for use in proteomics studies.

C. elegans strain PE254 [3] = test: Follow-up 11-point re-test, C. elegans LSC viability; details: 11-point titration, day 7, GFP area and worm number
Protocol: C. elegans strain PE254 were collected from six NGM plates and washed. […] Assay-ready plates were prepared as above with an 11-point, 1:3 titration of 96 compounds identified as active from the qHTS screen based on curve classification and maximum response. […] Data were normalized as above, and concentration–response curves were fit in Prism with nonlinear regression log(agonist) versus response–variable slope (four parameters) fit.

C. elegans strain PE254 [4] = test: 384-well LSC C. elegans viability assay, life-stage sorted worms on BGs or OP50 live bacteria (assay development); details: all life stages grown on BGs, by day 1; read-out: half-maximal effective concentration (EC50)
Protocol: Strain PE254 worms were collected from eight NGM plates as above. The mixed population of C. elegans was resuspended in 30 ml 1× S basal buffer and plated at ten GFP worms per well of each life stage into respective wells of 384-well uClear microtiter plates with the COPAS biosorter run with the calibration protocol and settings from above. E. coli BGs diluted to OD600=0.6 or OP50 live bacteria diluted to OD600=0.05, 0.10, 0.15 or 0.2 in S medium were added to respective plates at 30 μl per well manually with a Capp pipette (BioVentures, Inc.). […] Plates were covered with a Breath-Easy seal (Thermo Fisher Scientific) and weighted metal lids with gas exchange pores (Fujifilm Wako Automation Corp.). Worms were grown in the presence of compound or DMSO for 7 days at 21°C and 65 rpm in an Incu-Shaker (Benchmark Scientific). Worms were imaged every 24–72 h on an Acumen eX3 laser scanning cytometer (STP Labtech). Plates were read with default reader settings, with scan 1 488 nm laser, green (FL-2) detection channel, 400 voltage, sensitivity of 2 and triggered in the green PMT. Green objects detected by the reader were identified as worms based on the filtered FL-2 object parameters perimeter (100-2200), area (1000-180,000), and peak intensity (150-1500). Viability was monitored as an increase in GFP fluorescence quantified as total number and total object area (µm^2) of FL-2 filtered objects per well. LSC data were collected using cellista 4 (version 4.3.4.0, STP Labtech).
Concentration–response curves for average total filtered FL-2 object area (‘GFP area’) and total filtered FL-2 number of objects (‘number of worms’) for each respective compound were fit with the nonlinear regression log (agonist) versus response–variable slope (four parameters) algorithm in Prism (GraphPad Software). Hillslope and/or EC50 constraints were applied as needed to all life stages per compound across the 7-day time course, and EC50 values were calculated. […] (3) [drawing 3] where σ is the mean signal and µ is the standard deviation for the treated (p) or neutral (n) controls.

| Compound | activity on C. elegans viability in primary qHTS (in words) (C. elegans strain PE254 [1]; GFP area) | effect on life stage viability (in words) (C. elegans strain PE254 [2]) | activity on C. elegans viability in follow-up (in words) (C. elegans strain PE254 [3]) | also measured |
| --- | --- | --- | --- | --- |
| CC(=O)N1c2ccc(-c3ccc(C(=O)O)cc3)cc2[C@H](Nc2ccc(Cl)cc2)C[C@@H]1C [GSK1324726A] | Active |  |  |  |
| CC(C)C[C@@H](C=O)NC(=O)[C@H](CC(C)C)NC(=O)[C@H](CC(C)C)NC(=O)OCc1ccccc1 [MG-132] (Cbz-Leu-Leu-Leu-aldehyde) | Inactive | no discernable effect |  |  |
| Cc1cc(/C=C/c2ccc3cc(N(C)C)ccc3[n+]2C)c(C)n1-c1ccccc1 [Pyrvinium pamoate] | active |  |  |  |
| O=C(/C=C\n1cnc(-c2cc(C(F)(F)F)cc(C(F)(F)F)c2)n1)NNc1cnccn1 [Selinexor] | low potency and efficacy | inactive | moderately active |  |
| Cn1cnc2c(F)c(Nc3ccc(Br)cc3Cl)c(C(=O)NOCCO)cc21 [Selumetinib] |  | no discernable effect |  | effect on life stage viability (in words) (C. elegans strain PE254 [2]; listed as 10): inactive |
| COC(=O)[C@]1(C)CC[C@]2(C)CC[C@]3(C)C4=CC=C5C(=CC(=O)C(O)=C5C)[C@]4(C)CC[C@@]3(C)[C@@H]2C1 [Pristimerin, pristimerin] |  |  | potent and/or efficacious toxicity |  |
| O=C(C1CCCCC1)N1CC(=O)N2CCc3ccccc3C2C1 (stereo not shown) [Praziquantel] | not detected; also recorded: not identified as active | no effect |  | curve classification (CC) (C. elegans strain PE254 [1]; GFP area, day 7): 4 |
| Ivermectin | active |  |  | EC50 (C. elegans strain PE254 [1]; treatment day 2, internal control, 16-point titration, six replicate wells, read-out: Treatment day, EC50 (GFP area)): 17 ± 3.9 nM; EC50 (C. elegans strain PE254 [1]; treatment day 3, internal control, 16-point titration, six replicate wells, read-out: Treatment day, EC50 (GFP area)): 16.9 ± 2.3 nM; EC50 (C. elegans strain PE254 [1]; treatment day 4, internal control, 16-point titration, six replicate wells, read-out: Treatment day, EC50 (GFP area)): 14 ± 1.7 nM; EC50 (C. elegans strain PE254 [1]; treatment day 5, internal control, 16-point titration, six replicate wells, read-out: Treatment day, EC50 (GFP area)): 14.6 ± 1.1 nM; EC50 (C. elegans strain PE254 [1]; treatment day 6, internal control, 16-point titration, six replicate wells, read-out: Treatment day, EC50 (GFP area)): 13.6 ± 1.1 nM; EC50 (C. elegans strain PE254 [1]; treatment day 7, internal control, 16-point titration, six replicate wells, read-out: Treatment day, EC50 (GFP area)): 12.4 ± 1.2 nM; EC50 (C. elegans strain PE254 [4]): ~1 nM |
| CC(C)C[C@H](NC(=O)[C@H](Cc1ccccc1)NC(=O)c1cnccn1)B(O)O [Bortezomib] |  | potent larval-stage depletion |  | effect on life stage viability (in words) (C. elegans strain PE254 [2]; listed as 5): affecting life-stage progression or number; EC50 (C. elegans strain PE254 [1]; Caenorhabditis elegans, Fig. 3D, read-out: qHTS potency based on GFP area): 888 nM; EC50 (C. elegans strain PE254 [1]; Caenorhabditis elegans, Fig. 3D, read-out: qHTS potency based on worm number): 592 nM |
| CC(=O)OC[C@H]1O[C@@H]([S-])[C@H](OC(C)=O)[C@@H](OC(C)=O)[C@@H]1OC(C)=O.CCP(CC)CC.[Au+] [Auranofin, auranofin] |  |  | best activity; also recorded: potent and/or efficacious toxicity |  |
| C=CC(=O)N1C/C(=C\c2ccc([N+](=O)[O-])cc2)C(=O)/C(=C/c2ccc([N+](=O)[O-])cc2)C1 [b-AP15] | Inactive |  |  |  |
| O=C(Oc1ccc([N+](=O)[O-])cc1)N1CCC(C(O)(c2ccc3c(c2)OCO3)c2ccc3c(c2)OCO3)CC1 [JZL-184] | low potency and efficacy |  | moderately active |  |
| CC(=O)Nc1cccc(-n2c(=O)n(C3CC3)c(=O)c3c(Nc4ccc(I)cc4F)n(C)c(=O)c(C)c32)c1 [Trametinib] |  | potent larval-stage depletion |  | effect on life stage viability (in words) (C. elegans strain PE254 [2]; listed as 9): affecting life-stage progression or number |
| CC[C@H](C)[C@H](NC(=O)[C@H]([C@@H](C)CC)N(C)C(C)=O)C(=O)N[C@H](C(=O)N[C@@H](CC(C)C)C(=O)[C@@]1(C)CO1)[C@@H](C)O [Epoxomicin] | Inactive |  |  |  |
| O=C(NO)c1cccc(C(=O)NCCc2ccccc2)c1 [BRD73954] | inactive |  |  |  |
| oligomycin A |  |  | best activity; also recorded: potent and/or efficacious toxicity |  |
